Source: ChEMBL document CHEMBL1153078, “Design and synthesis of acetamido tri- and tetra-hydroxyazepanes: potent and selective beta-N-acetylhexosaminidase inhibitors” (Bioorg Med Chem, 2009)
Active and inactive are the calls of the source. No cut-off for these calls is given here.

Key:
Canavalia ensiformis [1] = assay: Inhibition of jack bean alpha-mannosidase at 1 mM
[2] = target: Alpha-galactosidase (Coffea arabica) (UniProt Q42656); assay: Inhibition of coffee bean alpha-galactosidase at 1 mM
Chain of Alpha-galactosidase (Coffea arabica) (Q42656 16-378 limits assumed): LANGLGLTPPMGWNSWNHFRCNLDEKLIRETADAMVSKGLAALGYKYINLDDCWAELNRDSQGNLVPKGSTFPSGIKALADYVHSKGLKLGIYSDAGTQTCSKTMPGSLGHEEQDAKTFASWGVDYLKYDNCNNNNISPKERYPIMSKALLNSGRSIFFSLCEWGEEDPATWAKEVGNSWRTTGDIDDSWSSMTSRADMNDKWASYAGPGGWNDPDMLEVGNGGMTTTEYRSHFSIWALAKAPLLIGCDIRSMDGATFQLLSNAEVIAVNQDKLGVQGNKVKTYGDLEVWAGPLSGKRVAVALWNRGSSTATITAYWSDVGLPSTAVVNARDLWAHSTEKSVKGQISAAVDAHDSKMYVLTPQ

Aspergillus oryzae = assay: Inhibition of Aspergillus oryzea beta-xylosidase at 1 mM
Prunus dulcis = assay: Inhibition of almond beta-glucosidase at 1 mM
Oryza sativa = assay: Inhibition of rice alpha-glucosidase at 1 mM
Aspergillus niger = assay: Inhibition of Aspergillus niger amyloglucosidase at 1 mM
Saccharomyces cerevisiae = assay: Inhibition of yeast alpha-glucosidase at 1 mM
[3] = Inhibition of jack bean beta-N-acetylglucosaminidase; set-up: species or system Canavalia ensiformis
Bos taurus [4] = species: Bos taurus; assay: Inhibition of bovine liver beta-N-acetylglucosaminidase at 1 mM
[5] = target: T1, Tissue alpha-L-fucosidase (Bos taurus) (UniProt Q2KIM0); assay: Inhibition of bovine epididymis alpha-L-fucosidase at 1 mM
T1 sequence (whole entry): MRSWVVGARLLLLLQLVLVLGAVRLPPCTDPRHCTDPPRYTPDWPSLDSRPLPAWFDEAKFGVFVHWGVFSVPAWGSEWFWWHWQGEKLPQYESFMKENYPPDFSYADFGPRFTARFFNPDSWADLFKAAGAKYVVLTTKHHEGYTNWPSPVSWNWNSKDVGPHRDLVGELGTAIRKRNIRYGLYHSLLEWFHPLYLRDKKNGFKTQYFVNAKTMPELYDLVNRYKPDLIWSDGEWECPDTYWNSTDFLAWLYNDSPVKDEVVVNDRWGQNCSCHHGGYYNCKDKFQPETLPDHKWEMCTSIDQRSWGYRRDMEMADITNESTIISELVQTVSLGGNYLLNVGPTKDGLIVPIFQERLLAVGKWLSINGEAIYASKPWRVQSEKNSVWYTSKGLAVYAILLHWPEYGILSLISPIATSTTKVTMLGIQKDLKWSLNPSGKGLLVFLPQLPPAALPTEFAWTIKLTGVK

[6] = target: T2, Beta-galactosidase (Aspergillus oryzae) (UniProt Q2U7N3); assay: Inhibition of Aspergillus oryzea beta-galactosidase at 1 mM
T2 sequence (whole entry): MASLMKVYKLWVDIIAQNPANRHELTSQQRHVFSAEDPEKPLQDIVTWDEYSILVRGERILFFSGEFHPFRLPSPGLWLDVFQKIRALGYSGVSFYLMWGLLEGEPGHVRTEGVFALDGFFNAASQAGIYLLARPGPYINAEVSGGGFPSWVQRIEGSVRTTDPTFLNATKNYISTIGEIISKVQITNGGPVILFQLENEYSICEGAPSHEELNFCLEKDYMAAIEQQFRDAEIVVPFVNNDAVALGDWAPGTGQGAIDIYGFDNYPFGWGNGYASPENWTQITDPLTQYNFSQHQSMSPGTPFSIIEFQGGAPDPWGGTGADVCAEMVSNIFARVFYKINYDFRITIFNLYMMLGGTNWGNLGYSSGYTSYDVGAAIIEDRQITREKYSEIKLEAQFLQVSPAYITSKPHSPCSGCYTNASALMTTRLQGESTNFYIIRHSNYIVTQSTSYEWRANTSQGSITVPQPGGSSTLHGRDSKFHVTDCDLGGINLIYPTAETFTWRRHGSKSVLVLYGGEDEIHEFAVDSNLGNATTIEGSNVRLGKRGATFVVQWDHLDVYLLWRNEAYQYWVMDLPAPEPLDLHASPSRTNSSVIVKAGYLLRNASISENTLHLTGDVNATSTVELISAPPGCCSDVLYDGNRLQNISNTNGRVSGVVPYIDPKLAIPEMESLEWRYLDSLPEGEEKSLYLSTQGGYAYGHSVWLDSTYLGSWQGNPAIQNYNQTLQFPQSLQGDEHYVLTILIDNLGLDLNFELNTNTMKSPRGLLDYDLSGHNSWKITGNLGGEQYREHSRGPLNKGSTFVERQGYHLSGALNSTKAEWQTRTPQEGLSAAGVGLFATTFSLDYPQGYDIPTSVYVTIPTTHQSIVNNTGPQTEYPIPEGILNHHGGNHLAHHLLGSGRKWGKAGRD

Helix pomatia = assay: Inhibition of snail beta-mannosidase at 1 mM
Canavalia ensiformis [7] = assay: Inhibition of jack bean beta-N-acetylglucosaminidase at 1 mM
[8] = target: Beta-galactosidase (Escherichia coli) (UniProt Q8VNN2); assay: Inhibition of Escherichia coli beta-galactosidase at 1 mM
Chain of Beta-galactosidase (Escherichia coli) (Q8VNN2 whole entry, looked up): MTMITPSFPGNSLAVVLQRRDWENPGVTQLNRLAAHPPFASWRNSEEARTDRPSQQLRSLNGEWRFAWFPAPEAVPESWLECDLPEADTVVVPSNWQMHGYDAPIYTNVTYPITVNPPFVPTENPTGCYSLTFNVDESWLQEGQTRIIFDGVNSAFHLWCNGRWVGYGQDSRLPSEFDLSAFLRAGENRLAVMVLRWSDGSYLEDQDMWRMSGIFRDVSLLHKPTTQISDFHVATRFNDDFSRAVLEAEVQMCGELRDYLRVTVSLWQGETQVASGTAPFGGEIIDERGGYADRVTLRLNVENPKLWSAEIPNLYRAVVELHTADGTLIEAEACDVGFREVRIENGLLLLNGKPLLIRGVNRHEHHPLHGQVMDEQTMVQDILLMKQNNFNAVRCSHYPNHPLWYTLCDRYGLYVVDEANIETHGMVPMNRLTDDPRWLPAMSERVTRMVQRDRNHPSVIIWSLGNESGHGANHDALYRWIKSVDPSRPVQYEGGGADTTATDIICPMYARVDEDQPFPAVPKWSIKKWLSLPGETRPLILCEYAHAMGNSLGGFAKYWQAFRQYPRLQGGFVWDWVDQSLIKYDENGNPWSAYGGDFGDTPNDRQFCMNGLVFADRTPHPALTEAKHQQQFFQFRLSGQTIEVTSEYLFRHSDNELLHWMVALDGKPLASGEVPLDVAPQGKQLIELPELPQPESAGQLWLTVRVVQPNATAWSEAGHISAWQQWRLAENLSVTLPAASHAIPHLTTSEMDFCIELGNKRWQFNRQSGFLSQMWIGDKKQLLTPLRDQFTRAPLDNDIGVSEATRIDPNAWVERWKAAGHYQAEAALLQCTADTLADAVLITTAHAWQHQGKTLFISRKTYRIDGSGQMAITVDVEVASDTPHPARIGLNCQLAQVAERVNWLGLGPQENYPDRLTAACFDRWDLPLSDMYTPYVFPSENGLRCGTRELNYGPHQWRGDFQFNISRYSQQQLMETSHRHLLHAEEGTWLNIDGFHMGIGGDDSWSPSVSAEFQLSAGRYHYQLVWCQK

Bos taurus [9] = species: Bos taurus; assay: Inhibition of bovine liver beta-N-acetylglucosaminidase at 240 uM
Canavalia ensiformis [10] = assay: Inhibition of jack bean beta-N-acetylglucosaminidase at 240 uM
[11] = Inhibition of bovine liver beta-N-acetylglucosaminidase; set-up: species or system Bos taurus

Structure (SMILES) | inhibition (Canavalia ensiformis [1]) | inhibition [2] | inhibition (Aspergillus oryzae) | inhibition (Prunus dulcis) | inhibition (Oryza sativa) | inhibition (Aspergillus niger) | inhibition (Saccharomyces cerevisiae) | Ki [3] [nM] | inhibition (Bos taurus [4]) [%] | inhibition [5] | inhibition [6] | inhibition (Helix pomatia) | inhibition (Canavalia ensiformis [7]) [%] | inhibition [8] | inhibition (Bos taurus [9]) [%] | inhibition (Canavalia ensiformis [10]) [%] | Ki [11] [nM]
CC(=O)N[C@H]1CN[C@H](CO)[C@@H](O)[C@H](O)[C@@H]1O | inactive | inactive | inactive | inactive | inactive | inactive | inactive | 30000 | 74 | inactive | inactive | inactive | 88 | inactive | – | – | –
CC(=O)N[C@@H]1CNC[C@H](O)[C@@H](O)[C@@H]1O | inactive | inactive | inactive | inactive | inactive | inactive | inactive | – | 68 | inactive | inactive | inactive | 93 | inactive | – | – | –
CC(=O)N[C@H]1CNC[C@H](O)[C@@H](O)[C@@H]1O | inactive | inactive | inactive | inactive | inactive | 19% | inactive | 400 | 99 | 28% | inactive | inactive | 99 | inactive | 22 | 22 | 700
CC(=O)N[C@@H]1[C@@H](O)[C@H](O)[C@@H](CO)NC[C@H]1O | 25% | inactive | inactive | inactive | inactive | inactive | inactive | 500 | 99 | inactive | inactive | inactive | 98 | inactive | – | – | 600
